# Source: US10246456B2, “IRAK4 inhibiting agents” (BIOGEN MA INC., priority 2014, dated 2019)
# Molecular target: IRAK4 (Homo sapiens (Human), UniProt Q9NWZ3)
# Assay: IRAK-4 AlphaScreen biochemical kinase assay
# Settings: 1 nM IRAK4, 1 mM ATP, 3.5 h at RT
# Method in brief: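 AlphaScreen read-out: streptavidin beads bind the biotinylated peptide and protein A beads bind the anti-phosphothreonine antibody, so energy transfer reports phosphorylation of the peptide. The kinase is human IRAK-4.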
# Sequence of IRAK4 (Q9NWZ3 whole entry, species assumed): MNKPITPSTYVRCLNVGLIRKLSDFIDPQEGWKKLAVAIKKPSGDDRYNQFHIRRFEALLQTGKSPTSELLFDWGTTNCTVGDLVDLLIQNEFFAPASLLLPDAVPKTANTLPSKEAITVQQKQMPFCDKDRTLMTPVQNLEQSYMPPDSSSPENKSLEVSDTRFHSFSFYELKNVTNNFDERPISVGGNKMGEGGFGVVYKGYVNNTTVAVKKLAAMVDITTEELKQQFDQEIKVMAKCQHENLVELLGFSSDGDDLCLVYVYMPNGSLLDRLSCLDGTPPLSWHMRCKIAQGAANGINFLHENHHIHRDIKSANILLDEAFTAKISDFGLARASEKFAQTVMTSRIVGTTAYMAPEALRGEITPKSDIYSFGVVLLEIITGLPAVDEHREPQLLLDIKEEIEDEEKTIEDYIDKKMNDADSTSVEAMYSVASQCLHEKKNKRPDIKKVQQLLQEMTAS
row,SMILES,IC50 [µM]
1,"CC[C@H](N)c1cccc(-c2cc(OCCOC)c3cnn(-c4cncc(CO)n4)c3c2)n1 [Example 482, (S)-(6-(6-(6-(1-aminopropyl)pyridin-2-yl)-4-(2-methoxyethoxy)-1H-indazol-1-yl)pyrazin-2-yl)methanol]",< 0.1
2,"NC(=O)c1cc(-c2cncc(N)c2)cc2c1cnn2-c1cccc(C(F)(F)F)n1 [Example 52, 6-(5-aminopyridin-3-yl)-1-(6-(trifluoromethyl)pyridin-2-yl)-1H-indazole-4-carboxamide]",< 0.1
3,"COc1cc(-c2cccc(C(C)N)n2)cc2c1cnn2-c1cccc(CO)n1 (stereo not shown) [Example 307, (6-(6-(6-(1-aminoethyl)pyridin-2-yl)-4-methoxy-1H-indazol-1-yl)pyridin-2-yl)methanol]",< 0.1
4,"Cc1cccc(-n2ncc3c(N(C)C)cc(-c4cccc(C(C)N)n4)cc32)n1 (stereo not shown) [Example 102, 6-(6-(1-aminoethyl)pyridin-2-yl)-N,N-dimethyl-1-(6-methylpyridin-2-yl)-1H-indazol-4-amine]",< 0.1
5,"C[C@@H](N)c1ccnc(-c2ccc3cnn(-c4cccc(CO)n4)c3c2)n1 [Example 412, (R)-(6-(6-(4-(1-aminoethyl)pyrimidin-2-yl)-1H-indazol-1-yl)pyridin-2-yl)methanol]",1 to 10
6,"CC#CC[C@H](N)c1cccc(-c2cc(OCC)c3cnn(-c4cccc(CO)n4)c3c2)n1 [Example 441, (S)-(6-(6-(6-(1-aminopent-3-yn-1-yl)pyridin-2-yl)-4-ethoxy-1H-indazol-1-yl)pyridin-2-yl)methanol]",< 0.1
7,"Cc1cccc(-c2ncc3ccc(-c4cccc(N)c4)cn23)n1 [Example 42, 3-(3-(6-methylpyridin-2-yl)imidazo[1,5-a]pyridin-6-yl)aniline]",< 0.1
8,"COc1cc(-c2cccc([C@@H](N)CCCO)n2)cc2c1cnn2-c1cccc(CO)n1 [Example 409, (S)-4-amino-4-(6-(1-(6-(hydroxymethyl)pyridin-2-yl)-4-methoxy-1H-indazol-6-yl)pyridin-2-yl)butan-1-ol]",< 0.1
9,"Cc1cccc(-n2ncc3c(N)cc(-c4cccc(C(C)N)n4)cc32)n1 (stereo not shown) [Example 100, 6-(6-(1-aminoethyl)pyridin-2-yl)-1-(6-methylpyridin-2-yl)-1H-indazol-4-amine]",< 0.1
10,"Cc1cccc(-n2ncc3ccc(-c4cc(N)cnc4C)cc32)n1 [Example 204, 6-methyl-5-(1-(6-methylpyridin-2-yl)-1H-indazol-6-yl)pyridin-3-amine]",0.1 to 1
11,"CCC[C@H](N)c1ccnc(-c2cc(OCCOC)c3cnn(-c4cccc(CO)n4)c3c2)n1 [Example 595, (S)-(6-(6-(4-(1-aminobutyl)pyrimidin-2-yl)-4-(2-methoxyethoxy)-1H-indazol-1-yl)pyridin-2-yl)methanol]",< 0.1
12,"Cc1cccc(-n2ncc3ccc(-c4cccc5c4CCN(C)C5)cc32)n1 [Example 16, 2-methyl-5-(1-(6-methylpyridin-2-yl)-1H-indazol-6-yl)-1,2,3,4-tetrahydroisoquinoline]",1 to 10
13,"Cc1cccc(-n2ncc3ccc(-c4ccc(F)c(C(C)N)n4)cc32)n1 (stereo not shown) [Example 242, 1-(3-fluoro-6-(1-(6-methylpyridin-2-yl)-1H-indazol-6-yl)pyridin-2-yl)ethanamine]",< 0.1
14,"CC(N)c1cccc(-c2cc(F)c3cnc(-c4cccc(C(F)(F)F)n4)n3c2)n1 (stereo not shown) [Example 317, 1-(6-(8-fluoro-3-(6-(trifluoromethyl)pyridin-2-yl)imidazo[1,5-a]pyridin-6-yl)pyridin-2-yl)ethanamine]",< 0.1
15,"CCC[C@@H](N)c1ccnc(-c2cc(OCC)c3cnn(-c4cccc(CO)n4)c3c2)n1 [Example 584, (R)-(6-(6-(4-(1-aminobutyl)pyrimidin-2-yl)-4-ethoxy-1H-indazol-1-yl)pyridin-2-yl)methanol]",< 0.1
16,"Cc1cccc(-n2ncc3ccc(-c4cccc(C(N)C(F)(F)F)n4)cc32)n1 (stereo not shown) [Example 259, 2,2,2-trifluoro-1-(6-(1-(6-methylpyridin-2-yl)-1H-indazol-6-yl)pyridin-2-yl)ethanamine]",0.1 to 1
17,"Cc1cccc(-n2ncc3ccc(-c4ccccn4)cc32)n1 [Example 306, 1-(6-methylpyridin-2-yl)-6-(pyridin-2-yl)-1H-indazole]",0.1 to 1
18,"Cc1cccc(-n2ncc3ccc(-c4cccc(N)n4)cc32)n1 [Example 1, 6-(1-(6-methylpyridin-2-yl)-1H-indazol-6-yl)pyridin-2-amine]",0.1 to 1
19,"Cc1cc(C)nc(-n2ncc3ccc(-c4cccc(C(C)N)n4)cc32)c1 (stereo not shown) [Example 315, 1-(6-(1-(4,6-dimethylpyridin-2-yl)-1H-indazol-6-yl)pyridin-2-yl)ethanamine]",1 to 10
20,"Cc1cccc(-n2ncc3ccc(-c4cn(C)c(C(C)O)n4)cc32)n1 (stereo not shown) [Example 299, 1-(1-methyl-4-(1-(6-methylpyridin-2-yl)-1H-indazol-6-yl)-1H-imidazol-2-yl)ethanol]",1 to 10

row,SMILES,IC50 [µM]
1,"CC[C@H](N)c1cccc(-c2cc(OCCCO)c3cnn(-c4cccc(CO)n4)c3c2)n1 [Example 461, (S)-3-((6-(6-(1-aminopropyl)pyridin-2-yl)-1-(6-(hydroxymethyl)pyridin-2-yl)-1H-indazol-4-yl)oxy)propan-1-ol]",< 0.1
2,"CC(=O)c1cccc(-c2cc(Cl)c3cnn(-c4cccc(C)n4)c3c2)n1 [Example 218, 1-(6-(4-chloro-1-(6-methylpyridin-2-yl)-1H-indazol-6-yl)pyridin-2-yl)ethanone]",1 to 10
3,"CC(=O)C[C@H](N)c1cccc(-c2ccc3cnn(-c4cccc(CO)n4)c3c2)n1 [Example 449, (S)-4-amino-4-(6-(1-(6-(hydroxymethyl)pyridin-2-yl)-1H-indazol-6-yl)pyridin-2-yl)butan-2-one]",< 0.1
4,"Cc1cccc(-n2ncc3ccc(-c4cncc(N(C)C)c4)cc32)n1 [Example 202, N,N-dimethyl-5-(1-(6-methylpyridin-2-yl)-1H-indazol-6-yl)pyridin-3-amine]",0.1 to 1
5,"CC(N)c1cccc(-c2ccc3cnn(-c4cccc(CN)n4)c3c2)n1 (stereo not shown) [Example 287, 1-(6-(1-(6-(aminomethyl)pyridin-2-yl)-1H-indazol-6-yl)pyridin-2-yl)ethanamine]",0.1 to 1
6,"CC(N)c1cccc(-c2cc(Cl)c3cnc(-c4cccc(C(F)(F)F)n4)n3c2)n1 (stereo not shown) [Example 311, 1-(6-(8-chloro-3-(6-(trifluoromethyl)pyridin-2-yl)imidazo[1,5-a]pyridin-6-yl)pyridin-2-yl)ethanamine]",< 0.1
7,"COCCOc1cc(-c2cccc([C@@H](N)CC(C)(F)F)n2)cc2c1cnn2-c1cccc(CO)n1 [Example 455, (S)-(6-(6-(6-(1-amino-3,3-difluorobutyl)pyridin-2-yl)-4-(2-methoxyethoxy)-1H-indazol-1-yl)pyridin-2-yl)methanol]",< 0.1
8,"Cc1nc(-n2ncc3ccc(-c4cccc(C(C)N)n4)cc32)cs1 (stereo not shown) [Example 136, 1-(6-(1-(2-methylthiazol-4-yl)-1H-indazol-6-yl)pyridin-2-yl)ethanamine]",0.1 to 1
9,"COCCC[C@H](N)c1cccc(-c2cc(-c3ccn(C)n3)c3cnn(-c4cccc(CO)n4)c3c2)n1 [Example 575, (S)-(6-(6-(6-(1-amino-4-methoxybutyl)pyridin-2-yl)-4-(1-methyl-1H-pyrazol-3-yl)-1H-indazol-1-yl)pyridin-2-yl)methanol]",< 0.1
10,"CCCc1cccc(-n2ncc3ccc(-c4cccc(C(C)N)n4)cc32)n1 (stereo not shown) [Example 283, 1-(6-(1-(6-propylpyridin-2-yl)-1H-indazol-6-yl)pyridin-2-yl)ethanamine]",< 0.1
11,"Cc1cccc(-n2ncc3c(O)cc(-c4cccc(C(C)N)n4)cc32)n1 (stereo not shown) [Example 250, 6-(6-(1-aminoethyl)pyridin-2-yl)-1-(6-methylpyridin-2-yl)-1H-indazol-4-ol]",< 0.1
12,"NC1CCc2ccc(-c3ccc4cnn(-c5cccc(C(F)(F)F)n5)c4c3)nc21 (stereo not shown) [Example 62, 2-(1-(6-(trifluoromethyl)pyridin-2-yl)-1H-indazol-6-yl)-6,7-dihydro-5H-cyclopenta[b]pyridin-7-amine]",1 to 10
13,"CC1(N)CCCc2ccc(-c3ccc4cnn(-c5cccc(CO)n5)c4c3)nc21 (stereo not shown) [Example 420, (6-(6-(8-amino-8-methyl-5,6,7,8-tetrahydroquinolin-2-yl)-1H-indazol-1-yl)pyridin-2-yl)methanol]",< 0.1
14,"CC(N)c1cccc(-c2ccc3cnn(-c4cccc(C(F)(F)F)n4)c3c2)n1 (racemic) [Example 209, 1-(6-(1-(6-(trifluoromethyl)pyridin-2-yl)-1H-indazol-6-yl)pyridin-2-yl)ethanamine]",< 0.1
15,"CC(N)c1cccc(-c2ccc3cnn(-c4cccc(C(C)(C)C#N)n4)c3c2)n1 (stereo not shown) [Example 288, 2-(6-(6-(6-(1-aminoethyl)pyridin-2-yl)-1H-indazol-1-yl)pyridin-2-yl)-2-methylpropanenitrile]",0.1 to 1
16,"CC(N)c1cccc(-c2ccc3cnn(-c4cccc(C(F)(F)F)n4)c3c2)n1 (single isomer, unassigned; isomer a) [Example 83, 1-(6-(1-(6-(trifluoromethyl)pyridin-2-yl)-1H-indazol-6-yl)pyridin-2-yl)ethanamine-isomer A]",< 0.1
17,"CCC[C@H](N)c1cccc(-c2ccc3cnn(-c4nccc(CO)n4)c3c2)n1 [Example 403, (S)-(2-(6-(6-(1-aminobutyl)pyridin-2-yl)-1H-indazol-1-yl)pyrimidin-4-yl)methanol]",< 0.1
18,"CN1CCCC1c1cccc(-c2ccc3cnn(-c4cccc(C(F)(F)F)n4)c3c2)n1 (stereo not shown) [Example 98, 6-(6-(1-methylpyrrolidin-2-yl)pyridin-2-yl)-1-(6-(trifluoromethyl)pyridin-2-yl)-1H-indazole]",1 to 10
19,"CCC[C@@H](N)c1cccc(-c2ccc3cnn(-c4cccc(C)n4)c3c2)n1 [Example 264, (R)-1-(6-(1-(6-methylpyridin-2-yl)-1H-indazol-6-yl)pyridin-2-yl)butan-1-amine]",< 0.1
20,"CCC[C@H](N)c1cccc(-c2cc(C3CCOC3)c3cnn(-c4cccc(CO)n4)c3c2)n1 (stereo partly drawn) [Example 597, (6-(6-(6-((S)-1-aminobutyl)pyridin-2-yl)-4-(tetrahydrofuran-3-yl)-1H-indazol-1-yl)pyridin-2-yl)methanol]",< 0.1
